One data set deals with BMP-4 promoter 1 region. Put plainly: ER-mediated luciferase reporter gene modulation, BMP-4 promoter 1 region constructs, transient transfection of U-2 OS cells with pKCRE-ER. Type of data set: cell-based, human. To be noted: for ER-mediated expression of the reporter gene under control of BMP-4 promoter region (in words): BMP-4 promoter region reporter plus ER expression vector; for Fold Induction: ratio of luciferase activity in presence and absence of compound, U-2 OS, human ER. The text has this:
(§1) Additional fragments of promoter region 1 were generated by progressive exonuclease III digestion (Erase-a-base Kit, Promega), blunt-ended with klenow and deoxynucleotide-triphosphates and subcloned into an endoR SmaI-digested pSLA4 luciferase reporter plasmid.
(§2) The human estrogen receptor (ER)-containing mammalian expression construct pKCRE-ER was constructed in the following way. […] The ER-cDNA was isolated as an endoR SphI/EcoRI fragment comprising nucleotide positions -30 to +1800.
ER-mediated reporter gene modulation by different estrogen analogs of individual promoter region constructs were assayed by transient transfection of osteosarcoma cells (U-2 OS). One day prior to transfection, U-2 OS cells were seeded at a density of 10^5 cells per well (6-well tissue culture plates; Nunc). In this case, the cells were seeded in fenolred-free medium containing 10% (v/v) charcoal-stripped Fetal Calf Serum (csFCS) instead of FCS. DNA was introduced using the lipofection method as described by the supplier (Gibco, BRL). Hereto, the DNA (1 μg receptor construct, 1 μg reporter construct and 250 ng transfection control construct in 250 μL Optimem, Gibco BRL; in different experiments the total amount of transfected DNA was kept constant using pKCRE) was mixed with an equal volume of Lipofectin Reagent (Gibco, BRL) and allowed to stand for 30 min at room temperature. To this was added 500 μL of Optimem (RT) and this mixture was added to the cells, after the latter have been washed with serum-free medium. After a 5 h incubation period at 37° C., the cells were washed with fenolred-free and serum-free medium and incubated overnight in fenolred-free and 10% csFCS medium containing the testcompounds at the concentrations indicated. Prior to the preparation of lysates, cells were washed with PBS (7.6 mM Na2 HPO4 /NAH2 PO4 pH 7.4 and 0.12 M NaCl). Cell extracts were prepared by the addition of 200 μL lysis buffer (0.1 M sodium phosphate buffer pH 7.8 and 0.2% Triton X-100) to the cells and allowed to stand for 5 min at room temperature. Luciferase measurements of cell extracts was performed as described by the supplier (Promega; Luciferase assay system E1501). Hereto, 30 μL of cell extract was added to a […] Optiplate (Packard) and combined with 50 μL of luciferase substrate. The plates were sealed with Topseal film (Packard) and measurements were performed in a Topcount (Packard).

Data set [1] has as its system estrogen response element (ERE)-containing promoter. Put plainly: ER-mediated luciferase reporter gene modulation, estrogen response element promoter construct pERE3 TATA-Luc, transient transfection of U-2 OS cells with pKCRE-ER. It is filed as cell-based, human. As to conditions: for expression of the reporter gene under the control of a promoter comprising an estrogen responsive element (ERE) (in words): ERE promoter reporter plus ER expression vector. From the text: The estrogen response element (ERE)-containing promoter construct was based on pBL-CAT6 (Boshart et al., Gene 110, 129, 1992). It was modified into a luciferase (Luc) reporter construct by exchanging the endoR XhoI/StyI fragment of pBL CAT6 (containing the chloramphenicol acetyl transferase coding information) by the endoR XhoI/StyI fragment of pXP2 (containing the luciferase coding information; Nordeen et al., Biotechniques 6, 454, 1988). A minimal promoter/TATA-element with the sequence 5'-GGGTATATAAT-3'(SEQ ID NO:8) was inserted in between the endoR XbaI and endoR BamHI sites resulting in plasmid pTATA-Luc. A triple estrogen response element (ERE) with the core sequence
was inserted in the endoR HindIII site resulting in plasmid pERE3 TATA-Luc.
The human estrogen receptor (ER)-containing mammalian expression construct pKCRE-ER was constructed in the following way. The human ER-cDNA was obtained from G. Greene (Ben May Laboratory for Cancer Research, University of Chicago); it encodes a glycine instead of valine at amino acid position 400 (G. Greene et al., Science 231, 1150, 1986 and Tora et al., EMBO. J, 8, 1981, 1989). The ER-cDNA was isolated as an endoR SphI/EcoRI fragment comprising nucleotide positions -30 to +1800. This fragment was blunted by T4-DNA polymerase and inserted in the blunted endoR BamHI site of the mammalian expression construct pKCR (O'Hara et al., Proc.Natl.Acad.Sci.USA, 78, 1527, 1981). The latter plasmid was modified in that the last exon region of the rabbit β-globin gene was removed by digestion with endoR EcoRI/BgIII, filling in, and religation (nucleotide position 1122-1196; Van Ooyen et al., Science 206, 337, 1979) and the replacement of pBR322 for pBR327 sequences.
(§3) ER-mediated reporter gene modulation by different estrogen analogs of individual promoter region constructs were assayed by transient transfection of osteosarcoma cells (U-2 OS). One day prior to transfection, U-2 OS cells were seeded at a density of 10^5 cells per well (6-well tissue culture plates; Nunc). In this case, the cells were seeded in fenolred-free medium containing 10% (v/v) charcoal-stripped Fetal Calf Serum (csFCS) instead of FCS. DNA was introduced using the lipofection method as described by the supplier (Gibco, BRL). Hereto, the DNA (1 μg receptor construct, 1 μg reporter construct and 250 ng transfection control construct in 250 μL Optimem, Gibco BRL; in different experiments the total amount of transfected DNA was kept constant using pKCRE) was mixed with an equal volume of Lipofectin Reagent (Gibco, BRL) and allowed to stand for 30 min at room temperature. To this was added 500 μL of Optimem (RT) and this mixture was added to the cells, after the latter have been washed with serum-free medium. […]

Another data set deals with BMP-4 promoter 2 region. The data set is described as follows: ER-mediated luciferase reporter gene modulation, BMP-4 promoter 2 region constructs, transient transfection of U-2 OS cells with pKCRE-ER. It is filed as cell-based. As to conditions: human ER (FIG. 8, FIG. 9).
Source text: as §1, §2
as §3, with “temperature.” for “temperature. To this was added 500 μL of Optimem (RT) and this mixture was added to the cells, after the latter have been washed with serum-free medium.”
(In general: A reporter such as luciferase makes a cellular process visible.)

Data set [2] has as its system pSLA4 luciferase reporter plasmid. Put plainly: ER-mediated luciferase reporter gene modulation, pSLA4 reporter without BMP-4 promoter region, transient transfection of U-2 OS cells with pKCRE-ER. Type of data set: cell-based, human.
Source text: as §1, §2
as §3, with “temperature.” for “temperature. To this was added 500 μL of Optimem (RT) and this mixture was added to the cells, after the latter have been washed with serum-free medium.”

Setting [3] is: promoter region not further specified.

Entries after “also recorded” stand apart in the source; their conditions may differ.

Five compounds from patent US6159696A, “Isolated human BMP-4 promoter region” (priority 1996, dated 2000) can be followed below.

`O=C(c1ccc(OCCN2CCCCC2)cc1)c1c(-c2ccc(O)cc2)sc2cc(O)ccc12` [Raloxifene, raloxifene]: the “ER-mediated expression of the reporter gene under control of BMP-4 promoter region (in words)” value (from here on “ER-mediated expression”) in the data set with BMP-4 promoter 1 region (setting [3]) is on record as “could be induced and/or stimulated; also recorded: induced expression of the reporter gene”. Besides, the “Fold Induction” value in the data set with BMP-4 promoter 1 region (construct pSLA4.IN+16) came to 3.8 ± 0.6 fold; with BMP-4 promoter 1 region (construct pSLA4.IN+33) it was 3.1 ± 0.3 fold; in the data set with BMP-4 promoter 1 region (construct pSLA4.IN-42) it was 1.1 ± 0.2 fold; in the data set with BMP-4 promoter 1 region (construct pSLA4.INX) it was 3.4 ± 0.5 fold; in the data set on BMP-4 promoter 1 region (construct pSLA4.1EX (-1166/+173)), 3.7 ± 0.7 fold; in the data set on BMP-4 promoter 1 region (construct pSLA4.1PX (-697/+173)), 3.3 ± 0.5 fold. In addition, the “Fold Induction” value turned out to be 0.7 ± 0.3 fold in data set [1] (construct pERE3 TATA-Luc, ratio of luciferase activity in presence and absence of compound, U-2 OS, human ER); 1.1 ± 0.2 fold in data set [2] (construct pSLA4 (no BMP-4 promoter region), ratio of luciferase activity in presence and absence of compound, U-2 OS, human ER). Further, the “expression of the reporter gene under the control of a promoter comprising an estrogen responsive element (ERE) (in words)” value in data set [1] is “neither of these compounds were able to induce expression of the reporter gene”. The “ER-mediated effect on BMP-4 promoter 2 region reporter (in words)” value with BMP-4 promoter 2 region is “also apparent”.

For the compound `C[C@]12CC[C@@H]3c4ccc(O)cc4CC[C@H]3[C@@H]1CC[C@@H]2O` [Estradiol, 17β-estradiol], the “ER-mediated expression” value in the data set on BMP-4 promoter 1 region (promoter region not further specified in the sentence, listed as 17-β-estradiol) was “did not show a significant transcriptional effect”; in the data set on BMP-4 promoter 1 region (promoter region not further specified in the sentence, listed as 17β-estradiol), “did not induce the expression of the reporter gene”. Moreover, the “Fold Induction” value in data set [1] (u-2 os cells) was determined as 26 ± 7 fold; in data set [2] (u-2 os cells), 0.7 ± 0.1 fold.

Consider `CC/C(=C(\c1ccc(O)cc1)c1ccc(OCCN(C)C)cc1)c1ccccc1` [4OH-tamoxifen], for which the “ER-mediated expression” value with BMP-4 promoter 1 region (setting [3]) is listed as “can also be achieved”.

Take `CC/C(=C(\c1ccccc1)c1ccc(OCCN(C)C)cc1)c1ccccc1` [tamoxifen]: in the data set with BMP-4 promoter 1 region (setting [3]), the “ER-mediated expression” value is recorded as “could be induced and/or stimulated; also recorded: induced expression of the reporter gene”. For the same compound, the “expression of the reporter gene under the control of a promoter comprising an estrogen responsive element (ERE) (in words)” value in data set [1] was “neither of these compounds were able to induce expression of the reporter gene”.

As for `CCCCN(C)C(=O)CCCCCCCCCC[C@@H]1Cc2cc(O)ccc2[C@H]2CC[C@]3(C)[C@@H](O)CC[C@H]3[C@H]12` [ICI 164384], the “ER-mediated expression” value with BMP-4 promoter 1 region (setting [3]) was “considerable expression of the reporter gene; also recorded: can also be achieved”.
